Test results taken from patent US9518018B2, “3-alkoxy, thioalkyl and amino-4-amino-6-(substituted)picolinates and their use as herbicides” (Dow AgroSciences LLC, priority 2011, dated 2016).

Key:
Assay in all cases: Post-Emergent Test I herbicidal activity
Type in all cases: in vivo
[1] = system: ORYSA: rice (Oryza sativa); details: post-emergence, 336 h, read-out: Visual Growth Reduction (%)-14 Days after Application ORYSA; for pest or weed control at 280 g/ha: Table 3, 280 g ai/ha; for pest or weed control at 140 g/ha: Table 3, 140 g ai/ha
Protocol: (§1) Seeds or nutlets of the desired test plant species were planted in Sun Gro Metro-Mix® 360 planting mixture, which typically has a pH of 6.0 to 6.8 and an organic matter content of about 30 percent, in plastic pots with a surface area of 64 square centimeters. When required to ensure good germination and healthy plants, a fungicide treatment and/or other chemical or physical treatment was applied. The plants were grown for 7-21 d in a greenhouse with an approximate 15 h photoperiod which was maintained at about 23-29° C. during the day and 22-28° C. during the night. Nutrients and water were added on a regular basis and supplemental lighting was provided with overhead metal halide 1000-Watt lamps as necessary. The plants were employed for testing when they reached the first or second true leaf stage.
(§2) A weighed amount, determined by the highest rate to be tested, of each test compound was placed in a 25 mL glass vial and was dissolved in 4 mL of a 97:3 v/v mixture of acetone and DMSO to obtain concentrated stock solutions. […] The concentrated stock solutions obtained were diluted with 20 mL of an aqueous mixture containing acetone, water, isopropyl alcohol, DMSO, Atplus 411F crop oil concentrate, and Triton® X-155 surfactant in a 48.5:39:10:1.5:1.0:0.02 v/v ratio to obtain spray solutions containing the highest application rates. Additional application rates were obtained by serial dilution of 12 mL of the high rate solution into a solution containing 2 mL of 97:3 v/v mixture of acetone and DMSO and 10 mL of an aqueous mixture containing acetone, water, isopropyl alcohol, DMSO, Atplus 411F crop oil concentrate, and Triton X-155 surfactant in a 48.5:39:10:1.5:1.0:0.02 v/v ratio to obtain ½×, ¼×, ⅛× and 1/16× rates of the high rate. Compound requirements are based upon a 12 mL application volume at a rate of 187 liters per hectare (L/ha). Formulated compounds were applied to the plant material with an overhead Mandel track sprayer equipped with 8002E nozzles calibrated to deliver 187 L/ha over an application area of 0.503 square meters at a spray height of 18 inches (43 cm) above the average plant canopy height. Control plants were sprayed in the same manner with the solvent blank.
(§3) The treated plants and control plants were placed in a greenhouse as described above and watered by subirrigation to prevent wash-off of the test compounds. After 14 d, the condition of the test plants as compared with that of the untreated plants was determined visually and scored on a scale of 0 to 100 percent where 0 corresponds to no injury and 100 corresponds to complete kill.
(§4) By applying the well-accepted probit analysis as described by J. Berkson in Journal of the […], 48, 565 (1953) and by D. Finney in “Probit Analysis” Cambridge University Press (1952), the above data can be used to calculate GR20, GR50 and GR80 values, which are defined as growth reduction factors that correspond to the effective dose of herbicide required to kill or control 20 percent, 50 percent or 80 percent, respectively, of a target plant.

ZEAMX: corn (Zea mays) = details: Zea mays, post-emergence, 336 h, read-out: Visual Growth Reduction (%)-14 Days after Application ZEAMX; for pest or weed control at 280 g/ha: Table 3, 280 g ai/ha; for pest or weed control at 140 g/ha: Table 3, 140 g ai/ha
Protocol: as §1, §2, §3, §4

[2] = system: CHEAL: lambsquarters (Chenopodium album); details: Chenopodium album, post-emergence, 336 h, read-out: Visual Growth Reduction (%)-14 Days after Application CHEAL; for pest or weed control at 280 g/ha: Table 3, 280 g ai/ha; for pest or weed control at 140 g/ha: Table 3, 140 g ai/ha
Protocol: as §1, §2, §3, §4

[3] = system: CYPES: yellow nutsedge (Cyperus esculentus); details: post-emergence, 336 h, read-out: Visual Growth Reduction (%)-14 Days after Application CYPES; for pest or weed control at 280 g/ha: Table 3, 280 g ai/ha; for pest or weed control at 140 g/ha: Table 3, 140 g ai/ha
Protocol: as §1, §2, §3, §4

[4] = system: ABUTH: velvetleaf (Abutilon theophrasti); details: Abutilon theophrasti, post-emergence, 336 h, read-out: Visual Growth Reduction (%)-14 Days after Application ABUTH; for pest or weed control at 280 g/ha: Table 3, 280 g ai/ha; for pest or weed control at 140 g/ha: Table 3, 140 g ai/ha
Protocol: as §1, §2, §3, §4

[5] = system: ECHCG: barnyardgrass (Echinochloa crus-galli); details: post-emergence, 336 h, read-out: Visual Growth Reduction (%)-14 Days after Application ECHCG; for pest or weed control at 280 g/ha: Table 3, 280 g ai/ha; for pest or weed control at 140 g/ha: Table 3, 140 g ai/ha
Protocol: as §1, §2, §3, §4

[6] = system: EPHHL: wild poinsettia (Euphorbia heterophylla); details: post-emergence, 336 h, read-out: Visual Growth Reduction (%)-14 Days after Application EPHHL; for pest or weed control at 280 g/ha: Table 3, 280 g ai/ha; for pest or weed control at 140 g/ha: Table 3, 140 g ai/ha
Protocol: as §1, §2, §3, §4

`C=Cc1nc(C(=O)OC)c(OC)c(N)c1F` [Compound 12, methyl 4-amino-5-fluoro-3-methoxy-6-vinylpicolinate] showed a pest or weed control at 280 g/ha [1] of 0%, a pest or weed control at 280 g/ha (ZEAMX: corn (Zea mays)) of 0% and a pest or weed control at 280 g/ha [2] of 70%. For the same molecule, the pest or weed control at 280 g/ha [3] was 0%, the pest or weed control at 280 g/ha [4] was 0% and the pest or weed control at 280 g/ha [5] was 0%. The pest or weed control at 280 g/ha [6] was 0%.

`COc1c(C(=O)O)nc(-c2ccc(I)cc2)c(F)c1N` [Compound 55] was tested, and the pest or weed control at 132 g/ha ([1]; Table 3, 132 g ai/ha) was 10%, the pest or weed control at 132 g/ha (ZEAMX: corn (Zea mays); Table 3, 132 g ai/ha) was 80% and the pest or weed control at 132 g/ha ([2]; Table 3, 132 g ai/ha) was 90%. The pest or weed control at 132 g/ha ([3]; Table 3, 132 g ai/ha) was 100%, the pest or weed control at 132 g/ha ([4]; Table 3, 132 g ai/ha) was 85% and the pest or weed control at 132 g/ha ([5]; Table 3, 132 g ai/ha) was 100%. The pest or weed control at 132 g/ha ([6]; Table 3, 132 g ai/ha) was 100%.

In the case of `COc1c(C(=O)O)nc(Cl)c(F)c1N` [Compound 51], the pest or weed control at 70 g/ha ([1]; Table 3, 70 g ai/ha) was 0%, the pest or weed control at 70 g/ha (ZEAMX: corn (Zea mays); Table 3, 70 g ai/ha) was 0% and the pest or weed control at 70 g/ha ([2]; Table 3, 70 g ai/ha) was 90%. For the same molecule, the pest or weed control at 70 g/ha ([3]; Table 3, 70 g ai/ha) was 0%, the pest or weed control at 70 g/ha ([4]; Table 3, 70 g ai/ha) was 0% and the pest or weed control at 70 g/ha ([5]; Table 3, 70 g ai/ha) was 0%. The pest or weed control at 70 g/ha ([6]; Table 3, 70 g ai/ha) was 100%.

For `COC(=O)c1nc(-c2ccc(I)cc2F)c(F)c(N)c1OC` [Compound 26], the pest or weed control at 140 g/ha [1] was 0%, the pest or weed control at 140 g/ha (ZEAMX: corn (Zea mays)) was 75% and the pest or weed control at 140 g/ha [2] was 90%. The pest or weed control at 140 g/ha [3] was 50%, the pest or weed control at 140 g/ha [4] was 10% and the pest or weed control at 140 g/ha [5] was 55%. It also gave a pest or weed control at 140 g/ha [6] of 100%.

For `Nc1cc(-c2ccc(Cl)cc2F)nc(C(=O)O)c1OCC(F)(F)F` [Compound 70], the pest or weed control at 280 g/ha [1] was 0%, the pest or weed control at 280 g/ha (ZEAMX: corn (Zea mays)) was 75% and the pest or weed control at 280 g/ha [2] was 25%. It also gave a pest or weed control at 280 g/ha [3] of 85%, a pest or weed control at 280 g/ha [4] of 50% and a pest or weed control at 280 g/ha [5] of 0%. It also gave a pest or weed control at 280 g/ha [6] of 100%.

`COC(=O)c1nc(C(F)F)cc(N)c1OC` [Compound 92] was tested, and the pest or weed control at 140 g/ha [1] was 0%, the pest or weed control at 140 g/ha (ZEAMX: corn (Zea mays)) was 0% and the pest or weed control at 140 g/ha [2] was 95%. It also gave a pest or weed control at 140 g/ha [3] of 0%, a pest or weed control at 140 g/ha [4] of 40% and a pest or weed control at 140 g/ha [5] of 0%. It also gave a pest or weed control at 140 g/ha [6] of 70%.

`COC(=O)c1nc(-c2ccc(Cl)c(OC)c2F)cc(NC(C)=O)c1OC` [Compound 3, methyl 4-acetamido-6-(4-chloro-2-fluoro-3-methoxyphenyl)-3-methoxypicolinate] was tested, and the pest or weed control at 140 g/ha [1] was 0%, the pest or weed control at 140 g/ha (ZEAMX: corn (Zea mays)) was 10% and the pest or weed control at 140 g/ha [2] was 100%. For the same molecule, the pest or weed control at 140 g/ha [3] was 0%, the pest or weed control at 140 g/ha [4] was 100% and the pest or weed control at 140 g/ha [5] was 0%. It also gave a pest or weed control at 140 g/ha [6] of 100%.

Molecule `COC(=O)c1nc(-c2ccc(Cl)cc2F)cc(NC(C)=O)c1OC` [Compound 4, Methyl 4-acetamido-6-(4-chloro-2-fluorophenyl)-3-methoxypicolinate] has a pest or weed control at 140 g/ha [1] of 0%, a pest or weed control at 140 g/ha (ZEAMX: corn (Zea mays)) of 0% and a pest or weed control at 140 g/ha [2] of 100%. The pest or weed control at 140 g/ha [3] was 0%, the pest or weed control at 140 g/ha [4] was 80% and the pest or weed control at 140 g/ha [5] was 0%. For the same molecule, the pest or weed control at 140 g/ha [6] was 100%.

`CCOC(=O)c1nc(-c2ccc(Cl)cc2F)cc(N)c1OCC(F)F` [Compound 68] showed a pest or weed control at 180 g/ha ([1]; Table 3, 180 g ai/ha) of 0%, a pest or weed control at 180 g/ha (ZEAMX: corn (Zea mays); Table 3, 180 g ai/ha) of 10% and a pest or weed control at 180 g/ha ([2]; Table 3, 180 g ai/ha) of 90%. It also gave a pest or weed control at 180 g/ha ([3]; Table 3, 180 g ai/ha) of 90%, a pest or weed control at 180 g/ha ([4]; Table 3, 180 g ai/ha) of 100% and a pest or weed control at 180 g/ha ([5]; Table 3, 180 g ai/ha) of 0%. For the same molecule, the pest or weed control at 180 g/ha ([6]; Table 3, 180 g ai/ha) was 100%.

`C#Cc1ccc(-c2nc(C(=O)OC)c(OC)c(N)c2F)cc1` [Compound 30, methyl 4-amino-6-(4-ethynylphenyl)-5-fluoro-3-methoxypicolinate] gave a pest or weed control at 140 g/ha [1] of 0%, a pest or weed control at 140 g/ha (ZEAMX: corn (Zea mays)) of 70% and a pest or weed control at 140 g/ha [2] of 100%. It also gave a pest or weed control at 140 g/ha [3] of 100%, a pest or weed control at 140 g/ha [4] of 50% and a pest or weed control at 140 g/ha [5] of 0%. The pest or weed control at 140 g/ha [6] was 100%.

`CCOC(=O)c1nc(-c2ccc(Cl)cc2F)cc(N)c1SCC(F)(F)F` [Compound 89, Ethyl 4-amino-6-(4-chloro-2-fluorophenyl)-3-((2,2,2-trifluoroethyl)thio)picolinate] was tested, and the pest or weed control at 140 g/ha [1] was 0%, the pest or weed control at 140 g/ha (ZEAMX: corn (Zea mays)) was 0% and the pest or weed control at 140 g/ha [2] was 70%. It also gave a pest or weed control at 140 g/ha [3] of 0%, a pest or weed control at 140 g/ha [4] of 30% and a pest or weed control at 140 g/ha [5] of 0%. For the same molecule, the pest or weed control at 140 g/ha [6] was 90%.
